B1: VTN: vitronectin, first coating matrix that supports cell adhesion (protein, UniProt P04004 20-478, looked up)
Vitronectin: DQESCKGRCTEGFNVDKKCQCDELCSYYQSCCTDYTAECKPQVTRGDVFTMPEDEYTVYDDGEEKNNATVHEQVGGPSLTSDLQAQSKGNPEQTPVLKPEEEAPAPEVGASKPEGIDSRPETLHPGRPQPPAEEELCSGKPFDAFTDLKNGSLFAFRGQYCYELDEKAVRPGYPKLIRDVWGIEGPIDAAFTRINCQGKTYLFKGSQYWRFEDGVLDPDYPRNISDGFDGIPDNVDAALALPAHSYSGRERVYFFKGKQYWEYQFQHQPSQEECEGSSLSAVFEHFAMMQRDSWEDIFELLFWGRTSAGTRQPQFISRDWHGVPGQVDAAMAGRIYISGMAPRPSLAKKQRFRHRNRKGYRSQRGHSRGRNQNSRRPSRATWLSLFSSEESNLGANNYDDYRMDWLVPATCEPIQSVFFFSGDKYYRVNLRTRRVDTVDPPYPRSIAQYWLGCPAPGHL

Tested on: imDAPs
Assay: imDAP expansion: cell morphology, cell number (Vi-cell cytometer), expansion fold, Population Doubling Time
Type: cell-based, human
Settings: for attachment and morphology of imDAPs on the coated surface: Example 8, coating 1 μg/cm^2, day 4, FIG. 4A
Method: imDAPs were produced according to the method described in CN201910169525.0. The imDAPs (P0) were seeded on VTN-coated plates (1 μg/cm^2) at a density of 1×10^5 cells/cm^2 in the expansion medium (50% DMEM/F12, 50% Neurobasal™ medium, 1% (v/v) Glutamax, 2% (v/v) B27 (50×), 0.2 μM LDN193189, 3 μM CHIR99021, 100 ng/mL FGF8b) in the absence or presence of 5 μM Blebbistatin. In case where Blebbistatin is present, Blebbistatin was either removed 24 hrs after plating or present throughout the culture period. The medium was changed every day for 5 days.
imDAPs were produced according to the method described in CN201910169525.0. The imDAPs (P0) were seeded on VTN-coated plates (1 μg/cm^2) at a density of 1×10^5 cells/cm^2 in the expansion medium (50% DMEM/F12, 50% Neurobasal™ medium, 1% (v/v) Glutamax, 2% (v/v) B27 (50×), 3 μM CHIR99021, 100 ng/mL FGF8b, […]) in the absence or presence of 0.2 μM LDN193189. The medium was changed every day for 5 days.
imDAPs were produced according to the method described in CN201910169525.0. The imDAPs (P0) were seeded on VTN-coated plates (1 μg/cm^2) at a density of 1×10^5 cells/cm^2 in the expansion medium (50% DMEM/F12, 50% Neurobasal™ medium, 1% (v/v) Glutamax, 2% (v/v) B27 (50×), 0.2 μM LDN193189, 3 μM CHIR99021, 100 ng/mL FGF8b, 5 μM Blebbistatin). The medium was changed every day. When imDAPs reach 100% confluence (4-5 days), cells were passaged enzymatically with 1× TrypLE, centrifuged at 250 g for 5 minutes, counted and replaced on new VTN-coated plates (1 μg/cm^2) at a density of 1×10^5 cells/cm^2 in the expansion medium. imDAPs were continuously expanded for 6 passages. At each passage, imDAPs were harvested at an expansion fold 5˜10 (over the initial number of imDAPs plated).
imDAPs were produced according to the method described in CN201910169525.0. The imDAPs (P0) were seeded on DLL4-coated ([…]), VTN-coated (1 μg/cm^2) and DLL4/VTN-coated ([…]) plates at a low density of 1×10^4 cells/cm^2 respectively, and cultured in the expansion medium in the absence or presence of 5 µM SB431542. Medium was replaced every 3rd day until reaching 100% confluence (6 days) for cell collection. The typical cell morphology on day 4 was recorded (FIG. 4A). The cell number of each group was counted by Vi-cell cytometer (FIG. 4B). The cells of each group were stained with Foxa2-PE antibody (BD, #561589), the percentage of Foxa2+ imDAPs were analyzed by flow cytometry (FIG. 4C). The expansion medium used in this example contained the following components: 50% DMEM/F12, 50% Neurobasal™ medium, 1% (v/v) Glutamax, 1% (v/v) B27, 50 μg/ml ascorbic acid, 0.2 μM LDN193189, 100 ng/ml FGF8b, 3 μM CHIR99021 and 10 μM Y27632.
imDAPs were produced according to the method described in CN201910169525.0. The imDAPs (P0) were seeded on DLL4/VTN-coated (1 μg/cm^2 for each) plates at a low density of 1×10^4 cells/cm^2, and cultured in the expansion medium (EM1, EM2, EM3, EM4). Medium was replaced every 3rd day until reaching 100% confluence (6 days) for cell collection. EM1 used in Example 9 contained the following components: 50% DMEM/F12, 50% Neurobasal™ medium, 1% (v/v) Glutamax, 1% (v/v) B27 (50×), […], 3 μM CHIR99021, 5 μM SB431542 and 10 μM Y27632. EM2 used in Example 9 contained the following components: 50% DMEM/F12, 50% Neurobasal™ medium, 1% (v/v) Glutamax, 1% (v/v) B27 (50×), 50 μg/ml ascorbic acid, […] LDN193189, 3 μM CHIR99021, 5 μM SB431542 and 10 μM Y27632. EM3 used in Example 9 contained the following components: 50% DMEM/F12, 50% Neurobasal™ medium, 1% (v/v) Glutamax, 1% (v/v) B27 (50×), 50 μg/mL ascorbic acid, […], 100 ng/ml FGF8b, 3 μM CHIR99021, 5 μM SB431542 and 10 μM Y27632. EM4 used in Example 9 contained the following components: 50% DMEM/F12, 50% Neurobasal™ medium, 1% (v/v) Glutamax, 1% (v/v) B27 (50×), 50 μg/ml ascorbic acid, 0.2 μM LDN193189, 10 ng/ml FGF2, 3 μM CHIR99021, 5 μM SB431542 and 10 μM Y27632. […]

Row | Molecule | cell morphology of expanded imDAPs (Example 2, with vs without 0.2 μM LDN193189, VTN-coated plates, 5 days, FIG. 1B) | imDAP expansion (overall conclusion) (Example 9) | cell number during expansion (Example 9, added to medium with CHIR99021, SB431542 and Y27632, DLL4/VTN-coated, 6 days, FIG. 5B) | attachment and morphology of imDAPs on the coated surface
1 | c1ccc2c(-c3cnn4cc(-c5ccc(N6CCNCC6)cc5)cnc34)ccnc2c1 [LDN193189] | cultured without LDN193189 showed more flattened morphology | had no additional effects on imDAP expansion | had no additional effect on increasing the cell number during expansion | –
2 | DLL4: Notch agonist used as second coating matrix | – | – | – | could not support the attachment of imDAPs
3 | B1 | – | – | – | showed flattened morphology

Source: patent US12391919B2, “Culture medium, coating matrix and method for maturing midbrain dopaminergic progenitor cells” (NUWACELL BIOTECHNOLOGIES CO., LTD., priority 2022, dated 2025)
